Measurements as given in publication PMC7542481, “Synthesis of Amino Acid Schiff Base Nickel (II) Complexes as Potential Anticancer Drugs In Vitro” (Bioinorganic Chemistry and Applications, 2020).

Tests used:
breast cancer MCF-7 = test: MTT cytotoxicity assay, MCF-7; type: cell-based, human; settings: treatment 48 h
Protocol: (§1) 3-(4,5-Dimethylthiazol-2-yl)-2, 5-diphenyltetrazolium bromide (MTT) method was used to assay the cytotoxicity in vitro. Complexes 1–3, ligands (L1, L2, and L3), Ni (CH3COO)2, and cisplatin were dissolved in DMSO at the concentration of 20 mM as a stock solution for subsequent testing. Four different cancer cell lines (MCF-7, SGC-7901, Eca-109, and HepG2) and one normal cell line (HSF) were seeded in 96-well and cultured at 37 °C in 5% CO2. After 24 h, the medium was replaced by different concentrations of complex and incubated for 48 h. 10 μL MTT dye (5 mg/mL) was added to each well and incubated for another 4 h. After that, the medium was removed and DMSO (100 μL) was added to solubilize the MTT formazan. A microplate reader (Bio-Rad iMark™) was used to measure the OD value of each well at a wavelength of 490 nm. Each experiment was repeated at least three times, and GraphPad Prism 5.0 was used to analyze the IC50 values.

gastric cancer SGC-7901 = test: MTT cytotoxicity assay, SGC-7901; type: cell-based, human; settings: treatment 48 h
Protocol: as §1

[1] = system: esophageal cancer Eca-109; test: MTT cytotoxicity assay, Eca-109; type: cell-based, human; settings: treatment 48 h
Protocol: as §1

[2] = system: hepatocellular carcinoma HepG2; test: MTT cytotoxicity assay, HepG2; type: cell-based, human; settings: treatment 48 h
Protocol: as §1

normal human cells HSF = test: MTT cytotoxicity assay, HSF; type: cell-based; settings: treatment 48 h
Protocol: as §1

Eca-109 cells [3] = test: Annexin V-PE/7-AAD staining apoptosis assay by flow cytometry (with or without NAC or 3-MA pretreatment); type: cell-based, human; settings: for percentage of apoptotic cells: 24 h, control 7.30%
Protocol: N-acetyl-L-cysteine (NAC), as a ROS scavenger, was added in a medium for 1 h before the addition of complex 2 to examine the effect of ROS on cell viability. The percentage of apoptotic cells was detected by Annexin V-PE/7-AAD staining assay after complex 2 treatment with or without NAC.
Different stages of apoptosis induced by complex 2 were determined by Annexin V-PE and 7-AAD staining according to the manufacture's protocol for the Annexin V Apoptosis Detection Kit (BD, Bioscience). Eca-109 cells were seeded in a 6-well plate with a density of 2 × 10^5 cells per well and cultured at 37°C in 5% CO2 for 24 h. Then, different concentrations of complex 2 were added into the above well and incubated for another 24 h. The cells were resuspended in binding buffer, stained with 5 μL Annexin V-PE and 5 μL 7-AAD at room temperature for 15 min, and analyzed using the flow cytometer (BD FACS Aria III).
3-MA, as an autophagic inhibitor, was added in a medium for 1 h before the addition of complex 2 to examine the effect of autophagy on cell viability. The percentage of apoptotic cells was detected by Annexin V-PE/7-AAD staining assay after complex 2 treatment with or without 3-MA.

Eca-109 cells [4] = test: Mitochondrial membrane potential by JC-1 staining, flow cytometry; type: cell-based, human; settings: 24 h, control 4.69%
Protocol: After being treated with different concentrations of complex 2, the cells were collected and incubated in 500 μL PBS containing 10 μg/mL JC-1 for 20 min at 37°C in the dark. Then, the cells were resuspended in PBS and analyzed by flow cytometry (BD FACS Aria III).

Eca-109 cells [5] = test: Cell cycle arrest assay, PI staining, flow cytometry; type: cell-based, human; settings: for percentage of cells in S phase / percentage in the cell at the G2/M phase / percentage in the cell at the G0/G1 phase: 24 h; for percentage in the cell at the G2/M phase: control 6.35%; for percentage in the cell at the G0/G1 phase: control 63.82%
Protocol: After treatment with different concentrations of complex 2, the cells were collected and fixed with 70% ethanol for the night. Then, the cells were incubated in 500 μL PBS containing Triton X-100 (0.1% v/v), RNase A (0.2 mg/mL), and propidium iodide (PI, 0.02 mg/mL) for 15 min. Then, the cells were analyzed by flow cytometry (BD FACS Aria III).

Eca-109 cells [6] = test: AO/EB double staining, fluorescence microscopy; type: cell-based, human; settings: Eca-109, 20 μM and 40 μM, 24 h
Protocol: AO/EB double staining was used to observe the changes in apoptotic cells. Eca-109 cells were cultured in a 6-well plate for 24 h. Then, cells were treated with different concentrations of complex 2 for another 24 h. After that, cells were washed twice with ice-cold PBS, stained with 100 μg/mL AO/EB for 10 minutes, and photographed by fluorescence microscopy (Nikon Eclipse Ti–E, Nikon Instruments Inc., Japan).

Eca-109 cells [7] = test: Hoechst 33342 staining, fluorescence microscopy; type: cell-based, human; settings: Eca-109, 20 μM and 40 μM, 24 h
Protocol: With the density of 2 × 10^5 cells per well, Eca-109 cells were cultured in a 6-well plate for 24 h. After that, the medium was replaced by different concentrations of complex 2 and incubated for another 24 h. Then, cells were washed twice with ice-cold PBS, stained with 10 μg/mL Hoechst 33342 for 15 minutes, and photographed by fluorescence microscopy (Nikon Eclipse Ti–E, Nikon Instruments Inc., Japan).

Eca-109 cells [8] = test: Intracellular ROS level, DCFH-DA probe; type: cell-based, human; settings: Eca-109, 20 μM and 40 μM, 24 h
Protocol: Eca-109 cells were seeded into a 6-well plate at a density of 2 × 10^5 cells per well and incubated for 24 h. Then, the medium was replaced and incubated with different concentrations of complex 2 for another 24 h. After that, cells were washed twice with ice-cold PBS, stained with 10 μM DCFH-DA for 30 minutes, and photographed by fluorescence microscopy (Nikon Eclipse Ti–E, Nikon Instruments Inc., Japan).

Eca-109 cells [9] = test: Autophagy assay, MDC staining; type: cell-based, human; settings: Eca-109, 20 μM and 40 μM, 24 h, compared to the control group
Protocol: Eca-109 cells were seeded in 6-well plates and incubated at 37 °C in 5% CO2 for 24 h. Then, the medium was replaced with different concentrations of complex 2 for another 24 h. After that, the medium was removed and the cells were washed twice with ice-cold PBS. Then, the cells were stained with MDC (monodansylcadaverine) solution (50 μM) for 15 min, and the data were obtained by flow cytometry (BD FACS Aria III).

Bcl-2 = test: Western blot assay, Bcl-2; type: cell-based, human; settings: Eca-109, 24 h, concentration-dependent
Protocol: (§2) After incubation with different concentrations of complex 2, cells were harvested in a radioimmunoprecipitation assay (RIPA) buffer with protease inhibitors and phosphatase inhibitors. BCA Protein Assay Kit was used to determine the protein concentration. Then, the expression levels of proteins associated with Bcl-2 family and autophagy were measured by Western blot assay.

Bcl-xL = test: Western blot assay, Bcl-xL; type: cell-based, human; settings: Eca-109, 24 h, concentration-dependent
Protocol: as §2

Bax = test: Western blot assay, Bax; type: cell-based, human; settings: Eca-109, 24 h, concentration-dependent
Protocol: as §2

Bad = test: Western blot assay, Bad; type: cell-based, human; settings: Eca-109, 24 h, concentration-dependent
Protocol: as §2

Beclin-1 = test: Western blot assay, Beclin-1; type: cell-based, human; settings: Eca-109, 24 h, concentration-dependent
Protocol: as §2

LC3B-II = test: Western blot assay, LC3B-II; type: cell-based, human; settings: Eca-109, 24 h, concentration-dependent
Protocol: as §2

p62 = test: Western blot assay, p62; type: cell-based, human; settings: Eca-109, 24 h, concentration-dependent
Protocol: as §2

Q: Which IC50 (breast cancer MCF-7) does the source give for `CC(=O)[O-].CC(=O)[O-].[Ni+2]` [Ni (CH3COO)2, reference compound] here?
A: Its IC50 is over 80 µM.

Q: What about the IC50 (gastric cancer SGC-7901) of the same molecule?
A: Its IC50 is 41.4 ± 0.87 µM.

Q: And the IC50 [1]?
A: Its IC50 is 43.5 ± 1.34 µM.

Q: What about the IC50 [2] of the same molecule?
A: Its IC50 is over 80 µM.

Q: `O=C([O-])[C@@H](Cc1c[nH]c2ccccc12)N=Cc1c([O-])ccc2ccccc12.[Ni+2].c1cnc2c(c1)ccc1cccnc12` [Complex 3, [Ni (Trp-naph) (phen) (CH3OH)]] was tested. Which IC50 (breast cancer MCF-7) did it give?
A: The IC50 was 23.7 ± 0.55 µM.

Q: And the IC50 (gastric cancer SGC-7901)?
A: Its IC50 is 24.3 ± 0.95 µM.

Q: What about the IC50 [1] of the same molecule?
A: Its IC50 is 21.9 ± 3.19 µM.

Q: What about the IC50 [2] of the same molecule?
A: The IC50 was 28.1 ± 1.34 µM.

Q: And the IC50 (normal human cells HSF)?
A: The IC50 was 32.5 ± 1.98 µM.

Q: With `O=C1[O][Ni][O]c2ccccc2C=N[C@@H]1Cc1c[nH]c2ccccc12.c1cnc2c(c1)ccc1cccnc12` [Complex 1, [Ni (Trp-sal) (phen) (CH3OH)]] as the molecule, how does the IC50 (breast cancer MCF-7) read?
A: Its IC50 is 75.75 ± 0.41 µM.

Q: And the IC50 (gastric cancer SGC-7901)?
A: The IC50 was 34 ± 2.5 µM.

Q: And the IC50 [1]?
A: Its IC50 is 23.9 ± 2.54 µM.

Q: And the IC50 [2]?
A: Its IC50 is over 80 µM.

Q: And the IC50 (normal human cells HSF)?
A: The IC50 was 60.9 ± 1.76 µM.

Q: Which IC50 (breast cancer MCF-7) does the source give for `O=C(O)C(Cc1c[nH]c2ccccc12)N=Cc1ccccc1O` (stereo not drawn) [Complex L1] here?
A: The IC50 was over 80 µM.

Q: What about the IC50 (gastric cancer SGC-7901) of the same molecule?
A: The IC50 was over 80 µM.

Q: And the IC50 [1]?
A: Its IC50 is over 80 µM.

Q: What about the IC50 [2] of the same molecule?
A: The IC50 was over 80 µM.

Q: What does the source list for `CO.CO.CO.COc1cccc(C=N[C@H](Cc2c[nH]c3ccccc23)C(=O)[O-])c1[O-].[Ni+2].c1cnc2c(c1)ccc1cccnc12` [Complex 2, [Ni (Trp-o-van) (phen) (CH3OH)]•2CH3OH]?
A: IC50 (breast cancer MCF-7): 16.1 ± 1.32 µM; IC50 (gastric cancer SGC-7901): 15.7 ± 1.46 µM; IC50 [1]: 18.1 ± 2.39 µM; IC50 [2]: 47.29 ± 0.35 µM; IC50 (normal human cells HSF): 23.9 ± 0.74 µM; percentage of apoptotic cells (Eca-109 cells [3]; Eca-109, 20 μM): 8.78%; percentage of apoptotic cells (Eca-109 cells [3]; Eca-109, 40 μM): 29.40%; percentage of apoptosis cells with NAC pretreatment versus without (Eca-109 cells [3]; Eca-109, 24 h, NAC added 1 h before): reduced; green fluorescence of the JC-1 monomers (loss of MMP) (Eca-109 cells [4]; Eca-109, 20 μM): 6.86%; green fluorescence of the JC-1 monomers (loss of MMP) (Eca-109 cells [4]; Eca-109, 40 μM): 49.5%; cell cycle arrest (in words) (Eca-109 cells [5]; Eca-109): cell cycle arrest in the G2/M phase; percentage of cells in S phase (Eca-109 cells [5]; Eca-109, 20 μM): 33.27%; percentage in the cell at the G2/M phase (Eca-109 cells [5]; Eca-109, 20 μM): 7.21%; percentage in the cell at the G0/G1 phase (Eca-109 cells [5]; Eca-109, 20 μM): 59.51%; percentage of cells in S phase (Eca-109 cells [5]; Eca-109, 40 μM): 31.32%; percentage in the cell at the G2/M phase (Eca-109 cells [5]; Eca-109, 40 μM): 19.84%; percentage in the cell at the G0/G1 phase (Eca-109 cells [5]; Eca-109, 40 μM): 48.84%; morphological changes, AO/EB staining (Eca-109 cells [6]): nuclear shrinkage, chromatin condensation, and late apoptotic cells containing red apoptotic bodies; apoptotic characteristics, Hoechst 33342 staining (Eca-109 cells [7]): apoptotic characteristics were also observed; intracellular ROS level (DCF fluorescence) (Eca-109 cells [8]): increase the intracellular ROS level in a dosage-dependent manner; MDC staining intensity (autophagy level) (Eca-109 cells [9]): increased significantly; expression level of Bcl-2 (Bcl-2): significantly decreased; expression level of Bcl-xL (Bcl-xL): significantly decreased; expression level of Bax (Bax): significantly increased; expression level of Bad (Bad): significantly increased; expression level of Beclin-1 (Beclin-1): increased; expression level of LC3B-II (LC3B-II): increased; expression level of p62 (p62): decreased

Q: Which results are given for `N.N.[Cl][Pt][Cl]` [Cisplatin, reference compound]?
A: IC50 (breast cancer MCF-7): 12.3 ± 0.75 µM; IC50 (gastric cancer SGC-7901): 11.7 ± 1.45 µM; IC50 [1]: 11.9 ± 0.19 µM; IC50 [2]: 13.9 ± 0.58 µM; IC50 (normal human cells HSF): 17.1 ± 1.31 µM

Q: What does the source list for `COc1cccc(C=N[C@H](Cc2c[nH]c3ccccc23)C(=O)O)c1O` [Complex L2]?
A: IC50 (breast cancer MCF-7): > 80 µM; IC50 (gastric cancer SGC-7901): > 80 µM; IC50 [1]: > 80 µM; IC50 [2]: > 80 µM

Q: With `Cn1cnc(N)c2ncnc1-2` [Complex 3-MA, 3-methyladenine, reference compound] as the molecule, how does the toxicity toward cells (Eca-109 cells [3]; Eca-109, 3-MA alone) read?
A: The toxicity toward cells was “nontoxicity”.

Q: For `O=C(O)[C@@H](Cc1c[nH]c2ccccc12)N=Cc1c(O)ccc2ccccc12` [Complex L3], which IC50 (breast cancer MCF-7) is on record?
A: Its IC50 is over 80 µM.

Q: What about the IC50 (gastric cancer SGC-7901) of the same molecule?
A: The IC50 was 42.7 ± 1.13 µM.

Q: And the IC50 [1]?
A: Its IC50 is 48.4 ± 4.99 µM.

Q: What about the IC50 [2] of the same molecule?
A: Its IC50 is over 80 µM.
